Laboratory results as given in a melting point compilation (Tetko et al.).
Starred links: 1 amine or outer side, 2 acyl side, 3 side chain; linkers in the order of their positions; H or OH if unused. Positions of bridges follow the written chain, without caps; N, C: chain ends. Non-standard residues stand in square brackets, D forms with d. Residues, ends and D or L forms follow the SMILES beside them. X7 = CCC(C)C(N[*:1])C(O)CC(=O)OC(C(C)C)C(O)C(C)C(=O)[*:2]; NMeY = CN[CH](Cc1ccc(O)cc1)C(=O)O; NMeL = CN[CH](CC(C)C)C(=O)O

Row | Structure (SMILES) | melting point [°C]
1 | C=CCNc1nc(NC(C)(C)CC(C)(C)C)nc(N(CCCCCCN(c2nc(NCC=C)nc(NC(C)(C)CC(C)(C)C)n2)C2CC(C)(C)NC(C)(C)C2)C2CC(C)(C)NC(C)(C)C2)n1 | 160 to 162
2 | CC(=O)OCC(CNC(=O)c1c(I)c(C(=O)NCC(COC(C)=O)OC(C)=O)c(I)c(N2CCCC2=O)c1I)OC(C)=O (stereo not given) | 130 to 133
3 | COc1cc(OC)c(/C=C/C(c2ccc(OC)c(NC(=O)c3ccc([N+](=O)[O-])cc3)c2)S(=O)(=O)C(/C=C/c2c(OC)cc(OC)cc2OC)c2ccc(OC)c(NC(=O)c3ccc([N+](=O)[O-])cc3)c2)c(OC)c1 (stereo not given) | 206 to 208
4 | CCOCc1nc(C(C)(C)O)c(C(=O)OCc2oc(=O)oc2C)n1Cc1ccc(-c2ccccc2-c2nnnn2C(c2ccccc2)(c2ccccc2)c2ccccc2)cc1 | 129 to 130
5 | CN(c1cccc2cc(C3=NCC(C(=O)N4CCOCC4)S3)[nH]c12)S(=O)(=O)c1cccs1 (stereo not given) | 238 to 239
6 | CCCCCCCCCCC1(CCCCCCCCCC)c2cc(-c3ccc4c(c3)C(CC)(CC)c3cc(-c5nc6ccccc6s5)ccc3-4)ccc2-c2ccc(-c3ccc4c(c3)C(CC)(CC)c3cc(N(c5ccccc5)c5ccccc5)ccc3-4)cc21 | 228 to 229
7 | COc1cc2c3c(ccc4c5ccc6c7c(cc(OC)c(c1c34)c75)-c1ccccc1C6C#C[Si](C(C)C)(C(C)C)C(C)C)C(C#C[Si](C(C)C)(C(C)C)C(C)C)c1ccccc1-2 (stereo not given) | 295 to 298
8 | Nc1cc(C(F)(F)C(F)(F)OC(F)(F)C(F)(OC(F)(F)C(F)(F)OC(F)(C(F)(F)F)C(F)(F)OC(F)(F)C(F)(F)c2ccc(O)c(N)c2)C(F)(F)F)ccc1O (stereo not given) | 55 to 58
9 | CCCCCCCCCCCCCCCCCCCCCC(=O)OCCN(CCOC(=O)CCCCCCCCCCCCCCCCCCCCC)CC(=O)O | 73 to 75
10 | Cc1c(O)cc(C(C)(C)C)c(O)c1C(=O)Nc1ccc(S(=O)(=O)C(F)(F)F)cc1Cl | 163 to 166
11 | CSCC[C@H](NC(=O)[C@H](CC(C)C)NC(=O)[C@H](C)NC(=O)[C@@H](N)CC(C)C)C(=O)NCCNc1ccc(NCCNC(=O)[C@H](CCSC)NC(=O)[C@H](CC(C)C)NC(=O)[C@H](C)NC(=O)[C@@H](N)CC(C)C)c2c1C(=O)c1c(O)ccc(O)c1C2=O | 210
12 | CCc1c(CCNC(=O)CCC(=O)CCC(=O)NCCc2ccc(OCc3ccccc3)c(OCc3ccccc3)c2CC)ccc(OCc2ccccc2)c1OCc1ccccc1 | 188 to 192
13 | CC(C)(C)c1cc(C(=O)OCCN(CCOC(=O)c2cc(C(C)(C)C)c(O)c(C(C)(C)C)c2)C(=O)c2cc(C(C)(C)C)c(O)c(C(C)(C)C)c2)cc(C(C)(C)C)c1O | 200 to 202
14 | CCCCCCC=CC(OC(=O)c1ccccc1)C(COC1OC(COCC(=O)O)C(OCC(=O)O)C(OC(=O)c2ccccc2)C1OC(=O)c1ccccc1)NC(=O)CCCCCCCCC(=O)OC (stereo not given) | 124 to 125
15 | CCC(C=CC(C)C1CCC2C3CC=C4CC(OC(=O)N(CC(O)COC(c5ccccc5)(c5ccccc5)c5ccccc5)C(C)C)CCC4(C)C3CCC12C)C(C)C (stereo not given) | 75 to 76
16 | COc1cc(C2c3cc4c(cc3C(NC(=O)CNCCCN(CCCCNC(=O)OCc3ccccc3)C(=O)OCc3ccccc3)C3COC(=O)C23)OCO4)cc(OC)c1O (stereo not given) | 255
17 | CC1(C)CC2(CC(C)(C)N1)NC(=O)N(CC(COc1ccc(C(C)(C)c3ccc(OCC(CN4C(=O)NC5(CC(C)(C)NC(C)(C)C5)C4=O)OC(=O)Nc4ccccc4)cc3)cc1)OC(=O)Nc1ccccc1)C2=O (stereo not given) | 202 to 207
18 | C=CCOc1ccc(C[C@H](NC(=O)OC(C)(C)C)C(=O)N[C@H](C(=O)OC)C(C)C)cc1 | 74 to 76
19 | CCC(Br)=C1NC(=O)N(C(C(=O)Nc2cc(NC(=O)C(CC)Oc3ccc(C(C)(C)CC)cc3C(C)(C)CC)ccc2Cl)C(=O)c2ccc(OC)cc2)C1=O (stereo not given) | 112 to 114
20 | C=CC1=C(C)c2cc3[nH]c(cc4nc(cc5[nH]c(cc1n2)c(C)c5CCC(=O)OCCCCCCN(C)C)C(CCC(=O)OCCCCCCN(C)C)=C4C)c(C)c3C=C | 160 to 165

Row | Structure (SMILES) | melting point [°C]
21 | CCOc1cc2c(cc1O)CCC1C2CCC2(C)C(O)CCC12 (stereo not given) | 154 to 155
22 | CCC(Cc1c(I)cc(I)c(NC(=O)CN2CCN(CC(=O)O)CCN(CC(=O)O)CCN(CC(=O)O)CC2)c1I)C(=O)O (stereo not given) | 230
23 | CC(=O)OCC(CNC(=O)c1c(I)c(NC(=O)C2CCCO2)c(I)c(C(=O)NCC(COC(C)=O)OC(C)=O)c1I)OC(C)=O (stereo not given) | 101 to 104
24 | CC1(C)CC(OC(=O)C(CCCCCCC(Cc2ccccc2)(C(=O)OC2CC(C)(C)NC(C)(C)C2)C(=O)OC2CC(C)(C)NC(C)(C)C2)(Cc2ccccc2)C(=O)OC2CC(C)(C)NC(C)(C)C2)CC(C)(C)N1 | 129 to 130
25 | Cc1ccc(C(=O)OCCN(C)C)cc1-n1c(C)cc(OCc2ccc(F)cc2CNC(=O)Nc2cc(C(C)(C)C)nn2-c2cccc(OCCO)c2)c(Cl)c1=O | 158 to 160
26 | O=C(Oc1c(I)cc(I)c(Br)c1I)C(F)(F)C(F)(Br)C(F)(F)Br (stereo not given) | 56 to 57
27 | COc1cc(OC)c(/C=C/C(c2ccc(OC)c(NC(=O)COC(C)=O)c2)S(=O)(=O)C(/C=C/c2c(OC)cc(OC)cc2OC)c2ccc(OC)c(NC(=O)COC(C)=O)c2)c(OC)c1 (stereo not given) | 192 to 194
28 | Brc1cc(C(Br)(Br)C(Br)(Br)C(Br)(Br)c2ccccc2)c(Br)c(Br)c1Br | 309 to 311
29 | Oc1c(Br)c(Br)c(-c2c(Br)c(Br)c(O)c(Br)c2Br)c(Br)c1Br | 282
30 | O=C(O)CN(CC(COCc1ccccc1)N(CCCOCc1ccccc1)CC(=O)O)CC(COCc1ccccc1)N(CCCOCc1ccccc1)CC(=O)O (stereo not given) | 150
31 | CC(C)(O)CCOc1c(-c2ccc(S(N)(=O)=O)cc2)cnn(-c2ccc(F)cc2)c1=O | 163 to 164
32 | CS(C)(=O)=NC(=O)c1cc(Oc2ccc(C(F)(F)F)cc2Cl)ccc1[N+](=O)[O-] | 122
33 | CC(C)CCCC(C)C1CCC2C3CC=C4CC(N(CCCNC(=O)CCNC(=O)CCCCCNc5ccc([N+](=O)[O-])c6nonc56)S(=O)(=O)c5ccccc5[N+](=O)[O-])CCC4(C)C3CCC12C (stereo not given) | 86 to 89
34 | CN(C)CCCN1c2ccccc2Sc2ccc(Cl)cc21 | 57
35 | CCC(C)C1NC(=O)C(NC(=O)C(CC(C)C)NC)C(C)OC(=O)C(Cc2ccc(OC)cc2)N(C)C(=O)C2CCCN2C(=O)C(CC(C)C)NC(=O)C(C)C(O)C(C(C)C)OC(=O)CC1O (stereo not given) (H-[NMeL]T[X7]LP[NMeY](Me); ester 2-C; configuration not given here) | 124 to 127
36 | CC(C)[C@H](NC(=O)N(C)Cc1csc(N)n1)C(=O)N[C@@H](Cc1ccccc1)C[C@H](O)[C@H](Cc1ccccc1)NC(=O)[C@@H](NC(=O)N(C)Cc1csc(N)n1)C(C)C | 110 to 114
37 | CCc1c(CC[Si](Cl)(Cl)Cl)c(CC[Si](Cl)(Cl)Cl)c(CC[Si](Cl)(Cl)Cl)c(CC[Si](Cl)(Cl)Cl)c1CC[Si](Cl)(Cl)Cl | 195 to 198
38 | CC(C)COc1c(-c2ccc(S(N)(=O)=O)c(F)c2)cnn(-c2cccc(Cl)c2)c1=O | 157 to 159
39 | COCCOCOc1cc(C(ON=C(C(=O)O)c2csc(NC(c3ccccc3)(c3ccccc3)c3ccccc3)n2)C(=O)OC(c2ccccc2)c2ccccc2)cc(C#N)c1OCOCCOC (stereo not given) | 158
40 | [C-]#[N+]C(C)C(=O)N(c1ccccc1)C(C)C (stereo not given) | 47 to 50
